Assay results taken from patent US4248892A, “Antifibrotic agent” (Takeda Chemical Industries, Ltd., priority 1978, dated 1981).
Like-named read-outs stand apart in the source and are kept apart here.

Tests used:
[1] = target: T1, protocollagen prolyl hydroxylase (Gallus gallus, UniProt P16924); experiment: Activity to inhibit protocollagen prolyl hydroxylase; format: biochemical, chick embryos; settings: concentration required for 50% inhibition of enzymic activity; pH 7.8, 37° C., 30 minutes; substrate (Pro-Pro-Gly)5.4H2O; read-out: ID50 (the source's name) (converted)
T1 construct: 190 chick embryos (14 days old) were homogenized; from tissue; host or cells: whole 14-day chick embryos; Triton X-100 extract, ammonium sulfate, calcium phosphate gel and DEAE-cellulose fractions
T1 sequence (P16924 1-516): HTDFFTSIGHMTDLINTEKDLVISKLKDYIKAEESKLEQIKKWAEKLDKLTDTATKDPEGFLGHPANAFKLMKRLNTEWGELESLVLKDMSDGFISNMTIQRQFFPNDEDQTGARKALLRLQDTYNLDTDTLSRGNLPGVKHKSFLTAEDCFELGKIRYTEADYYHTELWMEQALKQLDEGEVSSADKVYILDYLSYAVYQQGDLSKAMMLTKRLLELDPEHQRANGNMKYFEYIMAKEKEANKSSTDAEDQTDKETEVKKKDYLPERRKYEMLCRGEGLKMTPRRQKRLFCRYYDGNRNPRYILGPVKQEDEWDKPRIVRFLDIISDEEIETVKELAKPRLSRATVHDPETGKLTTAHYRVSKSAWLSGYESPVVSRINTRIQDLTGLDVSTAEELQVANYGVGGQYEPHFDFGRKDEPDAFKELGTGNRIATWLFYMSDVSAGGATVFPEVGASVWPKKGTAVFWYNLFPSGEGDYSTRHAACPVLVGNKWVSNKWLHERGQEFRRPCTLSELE
T1 sequence (P09102 23-515 partner): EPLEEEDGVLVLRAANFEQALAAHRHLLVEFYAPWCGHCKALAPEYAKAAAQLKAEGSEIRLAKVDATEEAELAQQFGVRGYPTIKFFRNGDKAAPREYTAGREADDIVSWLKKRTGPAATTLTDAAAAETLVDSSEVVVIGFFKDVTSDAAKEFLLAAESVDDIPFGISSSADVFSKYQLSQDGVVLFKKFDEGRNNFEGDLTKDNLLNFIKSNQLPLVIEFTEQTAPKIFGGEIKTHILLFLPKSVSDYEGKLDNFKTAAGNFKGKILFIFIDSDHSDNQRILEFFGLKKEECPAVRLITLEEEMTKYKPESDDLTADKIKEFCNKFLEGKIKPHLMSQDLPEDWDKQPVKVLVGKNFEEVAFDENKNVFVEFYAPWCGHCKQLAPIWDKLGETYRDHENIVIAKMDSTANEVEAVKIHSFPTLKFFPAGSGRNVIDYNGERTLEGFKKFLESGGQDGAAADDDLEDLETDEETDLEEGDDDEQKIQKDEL
Description: Method for the preparation of protocollagen prolyl hydroxylase: The method of K.I. Kivirikko et al and that of J. Halme et al were partially modified. [cf. Journal of Biological Chemistry 242, 4007 (1967) and Biochimica et Biophysica Acta 198, 460 (1970)]. Thus, 190 chick embryos (14 days old) were homogenized in 1600 ml of NaCl-GlycineTris[tris(hydroxymethyl)aminomethane]-HCl buffer containing 0.1% Triton [polyethylene glycol p-isooctylphenyl ether] X-100 (pH 7.5) and centrifuged. […]
Thus, 1.5 ml of a reaction mixture containing 50 μmols of Tris-HCl buffer (pH 7.8), 0.1 μmol of 1-^14 C-α-ketoglutarate (0.016 μ Ci), 0.5 μmol of ascorbate, 0.1 μmol of ferrous ammonium sulfate, 4.0 mg of heat denatured bovine serum albumin, 0.1 mg of crystalline bovine liver catalase, 0.15 μmol of dithiothreitol, 0.15 mg of (Pro-Pro-Gly)5.4H2 O, 0.5 ml of the enzyme solution and 0.1 ml of either methanol or methanol solution containing an inhibitor was put in a sealed test tube in which a filter paper impregnated with Hyamine (Hydroxide and Hyamine 10-X (Packard Instrument Co.)] had been hung and the reaction was carried out under shaking at 37° C. for 30 minutes. The reaction was terminated by the addition of 0.5 ml of 25% trichloroacetic acid and the enzymic activity was determined by measuring the radioactivity of the released ^14 CO2 trapped in filterpaper. […]

[2] = tested on: collagen biosynthesis; experiment: Inhibition of collagen biosynthesis in normal rats (uteri of 17-β-estradiol-stimulated immature rats); format: in vivo, SD rats (female, 3 weeks old); settings: i.p. 100 mg/kg at intervals of 24 hours, 6 days; for inhibition at 100 mg/kg: Rattus norvegicus, ip, vs 17-β-estradiol control
Description: According to the partially modified method of R.A. Salvador et al [Archives of Biochemistry and Biophysics 174, 382 (1976)], the following experiment was carried out with SD rats (female, 3 weeks old) in groups of 4 animals.
The test compound suspended in 4% gum arabic-physiological saline was intraperitoneally administered to rats in doses of 100 mg/kg at intervals of 24 hours for 6 consecutive days.
During the final 3 days, 5 μg/rat of 17-β-estradiol in 5% ethanol-saline solution or 5% ethanol-saline solution was administered one hour after the administration of compound (I). On the 7th day, each rat was killed and the uterus was excised, washed with ethanol-diethylether, dried at 60° C. for 2 hours and weighted to know the dry weight. The dry preparation was hydrolyzed with 3 ml of 6N-HCl at 110° C. for 22 hours, after which it was concentrated to dryness to remove the hydrochloric acid. The total amino acid in the hydrolyzate was determined by ninhydrin assay and from this value the total protein content of uterus was calculated as leucine equivalent. The amount of hydroxyproline in the hydrolyzate was also measured by the method of Blumenkratz et al [Analytical Biochemistry 63, 331 (1975)] and multiplied by 7.23 to obtain the amount of collagen. The amount of noncollagenous protein was calculated by substracting the amount of collagen from the total amount of protein.
The inhibitory activity of this compound on the synthesis of collagen and noncollagenous protein in the uteri of 17-β-estradiol-stimulated immature rats are shown as % reductions in the amounts of collagen and noncollagenous protein. Inhibition rate is calculated by the equation described in the legend of Table 2.

[3] = tested on: protocollagen prolyl hydroxylase; experiment: Protocollagen prolyl hydroxylase activity in liver in carbon tetrachloride-induced hepatic cirrhosis; format: in vivo, Male Sprague-Dawley rats; settings: CCl4 + compound, i.p. 100 mg/kg three times weekly, total 10 doses, dpm = decay per minute
Description: (§1) Male Sprague-Dawley rats weighting approximately 150 g each were divided into three groups. The first group received both 10% CCl4 -olive oil mixture (1 ml/rat) and compound (I) (100 mg/kg) intraperitoneally three times weekly for a total 10 doses. The second and third groups received 10% CCl4 -olive oil mixture (1 ml/rat) and olive oil (1 ml/rat) intraperitoneally three times weekly for a total 10 doses, respectively. The rats were sacrificed two days after the last injection and the livers were immediately removed for the assays.
A 10% homogenate of the liver was prepared in 20 m mol/l Tris-HCl buffer (pH 7 5) containing 0.2 mol/l NaCl, 0.1 mol/l glycine, 5×10^-5 mol/l 1,4-dithiothreitol, and 0.1% Triton X-100 using a Polytron homogenizer. The homogenate was centrifuged at 15,000 g for 20 minutes and the clear supernatant was assayed for protocollagen prolyl hydroxylase activity by the method of Hutton et al [Analytical Biochemistry 16, 384 (1966)]. The protein content of the homogenate was measured by the method of Lowry et al [Journal of Biological Chemistry 193, 265 (1951)] using bovine serum albumin as the standard.
(§2) The specific activity of protocollagen prolyl hydroxylase and hydroxyproline content in the liver treated with the compound as shown in Table 3.

[4] = tested on: collagen biosynthesis; experiment: Hydroxyproline content of liver in carbon tetrachloride-induced hepatic cirrhosis; format: in vivo, Male Sprague-Dawley rats; settings: CCl4 + compound, i.p. 100 mg/kg three times weekly, total 10 doses
Description: as §1
Hydroxyproline content of the livers was measured in a 6N-HCl hydrolysate (110° C., 22h) by the method of Blumenkrantz et al.
as §2

[5] = Acute toxicity; set-up: species or system male 4-week-old mice; settings: mouse, in vivo, ip; intraperitoneal; mice, groups of 5; 8 days observation
Description: Protocatechuic acid was intraperitoneally administered to male 4-week-old mice in groups of 5 animals and the animals were kept under observation for 8 days. The LD50 values thus found was >400 mg/kg for it.

[6] = 17-β-estradiol + compound, uterus, 7th day

Structure (SMILES) | IC50 [1] | Body weight of rats, 7th day ([2]; 17-β-estradiol + compound) | Total collagen [2, 6] | Total protein [2, 6] | inhibition at 100 mg/kg ([2]; uterus, read-out: Inhibition rate, collagen) | inhibition at 100 mg/kg ([2]; uterus, read-out: Inhibition rate, noncollagenous protein) | Prolyl hydroxylase [3] | Hydroxyproline [4] | LD50 at 192 h [5]
O=C(O)Cc1ccc(O)c(O)c1 [Homoprotocatechnic acid, homoprotocatechuic acid] | 17.8 µM |  |  |  |  |  |  |  | 
O=C(O)c1ccc(O)c(O)c1 [Protocatechuic acid, protocatechuic acid] | 19.5 µM | 75 ± 3 g | 3.31 ± 0.37 mg/uterus | 25.4 ± 2.2 mg/uterus | 85% | 15% | 1463 ± 236 dpm/mg of protein | 0.70 ± 0.09 μg/mg of liver | > 400 mg/kg
